Reference: publication PMC8262356, “SLC26A6-selective inhibitor identified in a small-molecule screen blocks fluid absorption in small intestine” (JCI Insight, 2021)

Columns and labels:
FRT cells = assay: Cytotoxicity, Alamar Blue assay; format: cell-based, rat; conditions: 10 μM, 48 h
Experimental: FRT cells were plated in black-walled, clear-bottom tissue culture plates at a density of 20,000 cells/well. After 24 hours in culture, cells were incubated with 10 μM PAT1inh-B01, 0.1% DMSO (vehicle control), or 20 % DMSO (positive control) for 48 hours for assay of cell viability using Alamar Blue (Thermo Fischer Scientific) according to the manufacturer’s instructions.

PAT1 (murine slc26a6) = molecular target: T1, PAT1 (murine slc26a6) (Mus musculus, UniProt Q8CIW6); assay: PAT1-mediated Cl-/SCN- exchange, YFP fluorescence quenching in FRT cells; format: cell-based; conditions: read-out: IC50, inhibition of PAT1-mediated Cl-/SCN- exchange
T1 construct: host or cells: Fischer rat thyroid (FRT) cells, lentiviral transduction (pLVX-IRES-mCherry-slc26a6), clonal line FRT-YFP-slc26a6
T1 sequence (Q8CIW6 24-758 limits assumed): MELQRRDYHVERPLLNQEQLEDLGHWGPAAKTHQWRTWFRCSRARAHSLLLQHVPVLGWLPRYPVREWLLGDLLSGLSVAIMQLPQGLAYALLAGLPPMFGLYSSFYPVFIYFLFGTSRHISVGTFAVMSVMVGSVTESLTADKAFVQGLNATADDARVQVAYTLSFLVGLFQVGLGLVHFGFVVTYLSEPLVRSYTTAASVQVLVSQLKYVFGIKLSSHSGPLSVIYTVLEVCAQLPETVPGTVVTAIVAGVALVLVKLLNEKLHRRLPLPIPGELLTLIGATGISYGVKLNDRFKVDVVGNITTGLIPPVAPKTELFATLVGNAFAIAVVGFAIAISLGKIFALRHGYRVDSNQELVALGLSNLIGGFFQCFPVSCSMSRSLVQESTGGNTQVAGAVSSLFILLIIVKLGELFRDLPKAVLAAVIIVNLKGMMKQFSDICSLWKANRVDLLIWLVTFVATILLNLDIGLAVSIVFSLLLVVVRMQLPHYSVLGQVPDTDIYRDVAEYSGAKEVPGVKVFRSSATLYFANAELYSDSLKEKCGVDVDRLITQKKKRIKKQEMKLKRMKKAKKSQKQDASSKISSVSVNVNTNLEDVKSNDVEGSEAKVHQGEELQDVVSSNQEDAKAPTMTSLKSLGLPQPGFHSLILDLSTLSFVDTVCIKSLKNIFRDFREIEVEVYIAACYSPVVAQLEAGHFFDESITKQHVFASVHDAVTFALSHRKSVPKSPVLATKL
Experimental: As PAT1 functions as a general monovalent anion exchanger, PAT1inh-B01 inhibition was studied for different modes of anion exchange. […] To measure Cl^–/HCO3^– exchange, the time course of cytoplasmic pH was measured, using BCECF as a pH indicator, in response to a gluconate gradient to drive exchange of cytoplasmic Cl^– with extracellular HCO3^– producing cytoplasmic alkalinization (Figure 2B) as done before for DRA and pendrin ([7], [10], [11]).
Figure 2 PAT1inh-B01 inhibition of PAT1-mediated anion exchange. (A) YFP fluorescence quenching curves (left), as in Figure 1B, for inhibition of PAT1-mediated exchange of Cl^– for SCN^–, with concentration dependence of PAT1inh-B01 effect (right) (mean ± SEM, n = 3). (B) Inhibition of Cl^–/HCO3^– exchange measured in BCECF-loaded FRT cells by PAT1inh-B01 (mean ± SEM, n = 16–32). (C) Time course of PAT1 inhibition following addition of 1 μM PAT1inh-B01 to cells (mean ± SEM, n = 3). (D) Effects of second messenger signaling on PAT1-mediated Cl^–/I^– exchange. YFP fluorescence quenching curves (left) and summary data (right) following cell exposure to agonists of cAMP (20 μM forskolin + 200 μM IBMX), cGMP (100 μM 8-Br-cGMP) and Ca^+2 (100 μM ATP), or vehicle control (1% DMSO). Mean ± SEM, n = 16 experiments per group, differences not significant by 1-way ANOVA and post hoc Newman-Keuls multiple comparisons test.

## Cc1c(Br)c(C(F)(F)F)nn1CC(=O)N1CCc2nc3cc(-c4ccccc4)[nH]n3c(=O)c2C1 [PAT1inh-B01]
FRT cells
  cytotoxicity (cell viability, Alamar Blue): did not cause cytotoxicity
PAT1 (murine slc26a6)
  IC50: 260 nM
